Results as given in patent publication US20260078099A1, “COMPOUND, PREPARATION METHOD THEREOF, AND LIPID NANOPARTICLE AND PHARMACEUTICAL COMPOSITION” (priority 2023, published 2026).

What was measured:
[1] = LNP encapsulation efficiency (Quant-it Ribogreen); format: physicochemical; details: mRNA LNP, cationic lipid/DSPC/cholesterol/PEG-lipid 50:10:38.5:1.5
Source text: Encapsulation Efficiency: The encapsulation efficiency of a therapeutic and/or prophylactic agent refers to the amount of the therapeutic and/or prophylactic agent encapsulated within or otherwise associated with the nanoparticle composition relative to the initial amount provided during preparation. Encapsulation efficiency is desirably high (such as close to 100%). Encapsulation efficiency can be measured, for example, by comparing the amount of therapeutic and/or prophylactic agent in a solution containing the nanoparticle composition before and after disruption of the nanoparticle composition using one or more organic solvents or detergents. Fluorescence can be used to measure the amount of free therapeutic and/or prophylactic agent (e.g., RNA) in solution. For the nanoparticle compositions described herein, the encapsulation efficiency of the therapeutic and/or prophylactic agent may be at least 50%, such as 50%, 55%, 60%, 65%, 70%, 75%, 80%, 85%, 90%, 91%, 92%, 93%, 94%, 95%, 96%, 97%, 98%, 99%, or 100%. In some embodiments, the encapsulation efficiency may be at least 80%. In certain embodiments, the encapsulation efficiency may be at least 90%.
(§1) In summary, the cationic lipid described herein, DSPC, cholesterol, and PEG-lipid were dissolved in ethanol at a molar ratio of 50:10:38.5:1.5 and diluted in 10 mM to 50 mM citrate buffer at pH 4 with mRNA. Using a microfluidic device, the lipid ethanol solution was mixed with mRNA aqueous solution at a volume ratio of 1:3 and a total flow rate ranging from 6-30 mL/min, preparing LNPs with a total lipid to mRNA weight ratio of approximately 10:1 to 30:1. Ethanol was removed by dialysis and replaced with PBS. Finally, the lipid nanoparticles were filtered through a 0.22 μm sterile filter.
(§2) The size of lipid nanoparticles was measured by dynamic light scattering using a Malvern Zetasizer Nano ZS (Malvern, UK) with a 90° scattering detection mode. The encapsulation efficiency of lipid nanoparticles was determined using the Quant-it Ribogreen RNA Quantitation Kit (Thermo Fisher Scientific, UK) according to the manufacturer's instructions. The apparent pKa of LNP formulations correlates with the delivery efficiency of nucleic acids by LNPs in vivo. The apparent pKa ranges from approximately 5 to 7. An analysis based on fluorescence from 2-(p-tolylamino)-6-naphthalenesulfonic acid (TNS) was used to determine the apparent pKa of formulations. As described above, LNP formulations containing cationic lipid/DSPC/cholesterol/DMG-PEG (50/10/38.5/1.5 mol %) in PBS were prepared. A 300 μM stock solution of TNS in distilled water was prepared. LNP formulations were diluted to 0.1 mg/mL total lipid in 3 mL of buffer solution containing 50 mM sodium citrate, 50 mM sodium phosphate, 50 mM sodium borate, and 30 mM sodium chloride (pH ranged from 3 to 9). […] S-shaped curve best-fit analysis was applied to the fluorescence data, and the pKa value was measured as the pH value producing half-maximal fluorescence intensity.

[2] = test system: mice; assay: Bioluminescent study, intramuscular injection of F-luc mRNA LNPs; format: in vivo; details: F-luc luminescence flux normalized to MC3; 0.25 mg/kg intramuscular, mice n=3, 6-hour time point
Protocol: The efficacy of nanoparticle compositions was evaluated using bioluminescent studies. A dose of 0.25 mg/kg (mpk) of the formulation was administered to mice (n=3) via intramuscular injection, and bioluminescence was measured at a 6-hour time point. The test lipid nanoparticles from the MC3 formulation were evaluated, and in some cases, controls (e.g., PBS controls) were assessed for comparison.
The characteristics of the test lipid nanoparticles measured from the test groups, including F-luc luminescence intensity, are listed in the table below.

[3] = LNP zeta potential; format: physicochemical; details: mRNA LNP
Source text: Nanoparticle compositions can be characterized by various methods. For example, the morphology and size distribution of nanoparticle compositions can be examined using microscopy (e.g., transmission electron microscopy or scanning electron microscopy). The zeta potential can be measured using dynamic light scattering or potentiometric titration. Dynamic light scattering can also be used to determine particle size. Instruments such as the Zetasizer Nano ZS (Malvern Instruments Ltd., Malvern, Worcestershire, UK) can also be used to measure multiple characteristics of nanoparticle compositions, such as particle size, polydispersity index, and zeta potential.
[…]: The zeta potential of the nanoparticle composition can indicate the electrophoretic potential of the composition. For example, zeta potential may describe the surface charge of the nanoparticle composition. Nanoparticle compositions with relatively low positive or negative charges are generally desirable, as materials with higher charges may interact undesirably with cells, tissues, and other components in the body. In some embodiments, the zeta potential of the nanoparticle composition may be about −10 mV to about +20 mV, about −10 mV to about +15 mV, about −10 mV to about +10 mV, about −10 mV to about +5 mV, about −10 mV to about 0 mV, about −10 mV to about −5 mV, about −5 mV to about +20 mV, about −5 mV to about +15 mV, about −5 mV to about +10 mV, about −5 mV to about +5 mV, about −5 mV to about 0 mV, about 0 mV to about +20 mV, about 0 mV to about +15 mV, about 0 mV to about +10 mV, about 0 mV to about +5 mV, about +5 mV to about +20 mV, about +5 mV to about +15 mV, or about +5 mV to about +10 mV.

[4] = LNP size and PDI by dynamic light scattering; format: physicochemical; details: mRNA LNP, cationic lipid/DSPC/cholesterol/PEG-lipid 50:10:38.5:1.5
Protocol: as §1, §2

| SMILES | Encapsulation efficiency (%) [1] | Relative Total flux [2] | Zeta potential (mV) [3] | PDI [4] | Size (nm) [4] |
| --- | --- | --- | --- | --- | --- |
| CCCCCCCCC(C(=O)NCCCCCCCCCC(=O)OCC12CC3CC(CC(C3)C1)C2)N(CCCN1CCCC1)C(=O)CCCCCCCCCC(=O)OC(CCCCCC)CCCCCC (stereo not shown) [Compound A8] | 92.88% | D (D: <0.1.) | −19.03 mV | 0.16 | 66.98 nm |
| CCCCCCCC(C(=O)NCCCCCCCCCC(=O)OC(CCCCCC)CCCCCC)N(CCCN1CCCC1)C(=O)CCCCCCCCCC(=O)OCC1CC=CCC1 (stereo not shown) [Compound A9] | 93.54% | D (D: <0.1.) | −18.67 mV | 0.191 | 64.58 nm |
| CCCCCCCCC(C(=O)NCCCCCCCCCC(=O)OCC1CC=CCC1)N(CCCN1CCCC1)C(=O)CCCCCCCCCC(=O)OC(CCCCCC)CCCCCC (stereo not shown) [Compound A10] | 54.08% | A (A: ≥2) | −3.45 mV | 0.415 | 61.16 nm |
| CCCCCCCCC(C(=O)NCCCCCCCCCC(=O)OC(CCCCCC)CCCCCC)N(CCCN(C)C)C(=O)CCCCCCCCCC(=O)OC(CCCCCC)CCCCCC (stereo not shown) [Compound A11] | 71.39% | D (D: <0.1.) | −2.89 mV | 0.075 | 225.6 nm |
| CCCCCCCC(C(=O)NCCCCCCCCCC(=O)OC(CCCCCC)CCCCCC)N(CCCN(C)C)C(=O)CCCCCCCCCC(=O)OC(CCCCCC)CCCCCC (stereo not shown) [Compound A12] | 24.84% | C (C: ≥0.1 and <1) | −9.55 mV | 0.207 | 63.48 nm |
| CCCCCCCCC(C(=O)NCCCCCCCCCC(=O)OC(CCCC)CCCCCC)N(CCCN(C)C)C(=O)CCCCCCCCCC(=O)OC(CCCC)CCCCCC (stereo not shown) [Compound A13] | 94.62% | B (B: ≥1 and <2) | 2.90 mV | 0.157 | 118.5 nm |
| CCCCCCCCC(CCCCCC)COC(=O)CCCCCCCCCNC(=O)C(CCCCCCCC)N(CCCN(C)C)C(=O)CCCCCCCCCC(=O)OCC(CCCCCC)CCCCCCCC (stereo not shown) [Compound A14] | 94.31% | C (C: ≥0.1 and <1) | 4.02 mV | 0.228 | 89.33 nm |
| CCCCCCCCC(C(=O)NCCCCCCCCCC(=O)OCCCCCC)N(CCCN(C)C)C(=O)CCCCCCCCCC(=O)OC(CCCCCC)CCCCCC (stereo not shown) [Compound A15] | 93.95% | A (A: ≥2) | 4.75 mV | 0.251 | 113.2 nm |
| CCCCCCCCC(C(=O)NCCCCCCCCCC(=O)OCCCCCC)N(CCCN(C)C)C(=O)CCCCCCCCCC(=O)OCCCCCC (stereo not shown) [Compound A16] | 41.55% | C (C: ≥0.1 and <1) | 0.78 mV | 0.183 | 78.42 nm |
| CCCCCCCC(C(=O)NCCCCCCCCCC(=O)OC(CCCCCC)CCCCCC)N(CCCN(C)C)C(=O)CCCCCCCCCC(=O)OCC12CC3CC(CC(C3)C1)C2 (stereo not shown) [Compound A17] | 53.24% | D (D: <0.1.) | −0.68 mV | 0.07 | 60.77 nm |
| CCCCCCCCC(C(=O)NCCCCCCCCCC(=O)OCC12CC3CC(CC(C3)C1)C2)N(CCCN(C)C)C(=O)CCCCCCCCCC(=O)OC(CCCCCC)CCCCCC (stereo not shown) [Compound A18] | 87.17% | D (D: <0.1.) | −15.20 mV | 0.136 | 78.14 nm |
| CCCCCCCC(C(=O)NCCCCCCCCCC(=O)OC(CCCCCC)CCCCCC)N(CCCN(C)C)C(=O)CCCCCCCCCC(=O)OCC1CC=CCC1 (stereo not shown) [Compound A19] | 89.13% | D (D: <0.1.) | −0.20 mV | 0.093 | 78.64 nm |
| CCCCCCCCC(C(=O)NCCCCCCCCCC(=O)OCC1CC=CCC1)N(CCCN(C)C)C(=O)CCCCCCCCCC(=O)OC(CCCCCC)CCCCCC (stereo not shown) [Compound A20] | 60.65% | D (D: <0.1.) | 17.70 mV | 0.113 | 93.07 nm |
| CCCCC/C=C\C/C=C\CCCCCCCC(=O)N(CCCN1CCCC1)CC(=O)NCCCCCCCCCCCCCC [Compound A21] | 54.53% | C (C: ≥0.1 and <1) | 11.03 mV | 0.071 | 95.73 nm |
| CCCCCCCCNC(=O)C(CCCC)N(CCCN(C)C)C(=O)CCCCCCC(=O)OC(CCCCCCCC)CCCCCCCC (stereo not shown) [Compound A27] | 95.33% | A (A: ≥2) | −3.43 mV | 0.11 | 121.37 nm |
| CCCCCCCCNC(=O)C(CCCCC)N(CCCN(C)C)C(=O)CCCCCCC(=O)OC(CCCCCCCC)CCCCCCCC (stereo not shown) [Compound A28] | 85.93% | A (A: ≥2) | −0.41 mV | 0.15 | 88.05 nm |
| CCCCCCCCNC(=O)C(CCCCCC)N(CCCN(C)C)C(=O)CCCCCCC(=O)OC(CCCCCCCC)CCCCCCCC (stereo not shown) [Compound A29] | 94.69% | A (A: ≥2) | −1.24 mV | 0.09 | 94.71 nm |
| CCCCCCCCNC(=O)C(CCCCCCC)N(CCCN(C)C)C(=O)CCCCCCC(=O)OC(CCCCCCCC)CCCCCCCC (stereo not shown) [Compound A30] | 96.65% | B (B: ≥1 and <2) | 0.47 mV | 0.12 | 86.87 nm |
| CCCCCCCCNC(=O)CCCCCNC(=O)C(CCCCCCCC)N(CCCN(C)C)C(=O)CCCCCC(=O)NC(CCCCCCC)CCCCCCC (stereo not shown) [Compound A31] | 97.50% | B (B: ≥1 and <2) | −4.31 mV | 0.22 | 79.94 nm |
| CCCCCCCCNC(=O)C(CCCCCCCC)N(CCCN(C)C)C(=O)CCCCCC(=O)NC(CCCCCCC)CCCCCCC (stereo not shown) [Compound A32] | 95.33% | B (B: ≥1 and <2) | 1.89 mV | 0.13 | 85.33 nm |
